US10072065B2, “Peptide-mediated delivery of immunoglobulins across the blood-brain barrier” (Mayo Foundation for Medical Education and Research, priority 2015, dated 2018)

Tested on: blood-brain barrier (BBB)
Test: Transportation of Evan's Blue (EB) across the BBB after IV Apo-I or peptide-cetuximab complex
Format: in vivo, mouse
Conditions: ~40 μL 2% EB only, IV femoral vein, brain evaluated approximately 2 hours after dye (brain number 1)
Method: To explore whether Apo-I transports an antibody across the BBB, the peptide or a peptide-cetuximab complex were first injected by IV followed by injection of Evan's Blue (EB; a routinely used small molecule blue dye with a molecular weight of 960.81) by IV into the femoral vein of a mouse. Cardiac perfusion was performed and the brains of the mice were removed and evaluated approximately 2 hours following injection of the dye. As a control, injection of EB only was used. The particulars of each administration are as follows: • 1) ˜40 μL 2% EB only was injected. • 2) 300 μg of Apo-I was injected first, then ˜40 μL 2% EB was injected. • 3) 600 μg of Apo-I was injected first, then ˜40 μL 2% EB was injected. • 4) 600 μg of Apo-I was mixed with 200 μg cetuximab prior to injection and then injected first, then ˜40 μL 2% EB was injected.

EB reaching the brain (blue coloring of brain): cannot reach the brain
Compound: Cc1cc(-c2ccc(/N=N/c3ccc4c(S(=O)(=O)[O-])cc(S(=O)(=O)[O-])c(N)c4c3O)c(C)c2)ccc1/N=N/c1ccc2c(S(=O)(=O)[O-])cc(S(=O)(=O)[O-])c(N)c2c1O.[Na+].[Na+].[Na+].[Na+] [EB, Evan's Blue]
